This passage reports TGI results from PubChem BioAssay (NCI).

Some test systems named below: SR leukemia; M14 melanoma; SK-MEL-28 melanoma; SF-295 CNS; HCT-15 colon; ACHN renal; LOX IMVI melanoma; EKVX NSCLC; MALME-3M melanoma; SK-MEL-2 melanoma.
Test in all cases: NCI tumour cell line growth inhibition, 48 h

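Interpolation was linear, between the two tested concentrations surrounding the appropriate level; five concentrations were tested over 48 hours in 96-well plates. TGI: concentration producing complete growth inhibition.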 Bounds are passed on as bounds.

With `O=c1[nH]c2ccc(C(F)(F)F)cc2nc1-c1ccccc1`, the TGI in the assay on SR leukemia, in the assay with M14 melanoma, with SK-MEL-28 melanoma, with SF-295 CNS, in the assay with HCT-15 colon and with ACHN renal was over 100 µM in each case. The TGI with LOX IMVI melanoma, in the assay on EKVX NSCLC and in the assay with MALME-3M melanoma was over 100 µM throughout.

For `CCOC(=O)/C(C#N)=C/c1ccc2c(-c3c(OCC)ccc4cc(/C=C(\C#N)C(=O)OCC)ccc34)c(OCC)ccc2c1`, the TGI in the assay with M14 melanoma is 35.7 µM; with SK-MEL-28 melanoma it was over 100 µM; in the assay on SF-295 CNS it was over 100 µM; in the assay with HCT-15 colon, over 100 µM; in the assay with SK-MEL-2 melanoma, over 100 µM; in the assay on ACHN renal, over 100 µM. The TGI with LOX IMVI melanoma, in the assay on EKVX NSCLC and in the assay on MALME-3M melanoma was over 100 µM throughout.

Take `C=C1C(=O)O[C@@H]2[C@H]3O[C@]3(C)CCC=C(C)CC[C@@H]12`: the TGI in the assay with SK-MEL-28 melanoma came to 44.3 µM; with SF-295 CNS it was 83.2 µM; with HCT-15 colon it was 35.3 µM; in the assay with SK-MEL-2 melanoma it was 37.7 µM; with LOX IMVI melanoma, 21.2 µM; in the assay with EKVX NSCLC it was 39.2 µM. The compound also had a TGI with MALME-3M melanoma of 25.3 µM.

As for `CC(C)(C)OC(=O)[N+](=N)C(=O)C1CCC(=O)N1C(=O)OCc1ccccc1` (centres undefined), the TGI with SR leukemia, with M14 melanoma, with SK-MEL-28 melanoma, in the assay with SF-295 CNS, with ACHN renal and with LOX IMVI melanoma was over 100 µM each time. Besides, the TGI in the assay with EKVX NSCLC and in the assay on MALME-3M melanoma was over 100 µM each time.

Regarding `CC1C(c2ccc(F)cc2)c2cc3c(cc2OC1N1CCCC1)OCO3` (centres undefined), the TGI with SR leukemia, with M14 melanoma, in the assay on SK-MEL-28 melanoma, with SF-295 CNS, with HCT-15 colon and in the assay on SK-MEL-2 melanoma was over 100 µM in each case. Also, the TGI in the assay with ACHN renal, with LOX IMVI melanoma and in the assay with EKVX NSCLC was over 100 µM each time.

In the case of `c1ccc2c(c1)ccc1nc(-c3ccc4c(c3)OCO4)c3c(c12)CCCC3`, the TGI in the assay with M14 melanoma, in the assay with SK-MEL-28 melanoma, in the assay with SF-295 CNS, in the assay with HCT-15 colon, in the assay on SK-MEL-2 melanoma and in the assay on ACHN renal was over 100 µM throughout. Besides, the TGI was over 100 µM in the assay with EKVX NSCLC and 63.2 µM with MALME-3M melanoma.

For `CCOC(=O)CC(=O)NC1CC2CCC1(C)C2(C)C` (centres undefined), the TGI in the assay with SR leukemia, in the assay on M14 melanoma, in the assay on SK-MEL-28 melanoma, in the assay with SF-295 CNS, in the assay on HCT-15 colon and with ACHN renal was over 100 µM each time. For the same compound, the TGI in the assay on LOX IMVI melanoma, with EKVX NSCLC and in the assay on MALME-3M melanoma was over 100 µM each time.

As to `Cn1c(=O)oc2cc(C(=O)CSC(=S)N3CCCCCC3)ccc21`, the TGI with SR leukemia, with M14 melanoma, in the assay with SK-MEL-28 melanoma, with SF-295 CNS, with HCT-15 colon and in the assay on SK-MEL-2 melanoma was over 100 µM in each case. The TGI in the assay on ACHN renal, in the assay on EKVX NSCLC and with MALME-3M melanoma was over 100 µM throughout.

With `CCOC(=O)CN1CCNCCN(CC(=O)OCC)CCNCC1`, the TGI in the assay on SR leukemia, in the assay with SK-MEL-28 melanoma, with SF-295 CNS, in the assay on HCT-15 colon, with SK-MEL-2 melanoma and in the assay on ACHN renal was over 100 µM throughout. For the same compound, the TGI in the assay on LOX IMVI melanoma and in the assay on EKVX NSCLC was over 100 µM in each case.

`CC(C)=CCC[C@]1(C)CC[C@]2(C)C3CCC(=C(C)C)[C@@H](CCCO)[C@]3(C)CC[C@@]2(C)C1` (some centres undefined): the TGI with M14 melanoma is over 100 µM; in the assay on SK-MEL-28 melanoma it was over 100 µM; in the assay with SF-295 CNS, over 100 µM; in the assay on HCT-15 colon it was over 100 µM; with SK-MEL-2 melanoma it was 71.5 µM; in the assay with ACHN renal, over 100 µM. Besides, the TGI with EKVX NSCLC and in the assay on MALME-3M melanoma was over 100 µM throughout.

Take `CC1=C2C(O)C(C(C)C(=O)NCC(C)C)CCC2(C)C=CC1=O` (centres undefined): the TGI in the assay with SK-MEL-28 melanoma, in the assay on SF-295 CNS, with HCT-15 colon, in the assay on SK-MEL-2 melanoma, with LOX IMVI melanoma and in the assay on EKVX NSCLC was over 100 µM throughout.

On to `S=c1[nH]nc(COc2ccc3c(c2)CCCC3)n1/N=C/c1ccc(Cl)cc1`, for which the TGI came out at 34.5 µM in the assay with M14 melanoma; 33.1 µM with SK-MEL-28 melanoma; 33.7 µM in the assay on SF-295 CNS; 41 µM in the assay on HCT-15 colon; 36.2 µM with SK-MEL-2 melanoma; 36 µM in the assay with ACHN renal. The TGI was determined as 37 µM in the assay on LOX IMVI melanoma, 34.6 µM in the assay on EKVX NSCLC and 33.1 µM with MALME-3M melanoma.

`CC/C(=N\NC(=O)c1cccnc1)c1ccc2c(c1)OCCO2`: the TGI in the assay on M14 melanoma, in the assay with SK-MEL-28 melanoma, with SF-295 CNS, with HCT-15 colon, in the assay with SK-MEL-2 melanoma and with ACHN renal was over 100 µM throughout. The TGI is over 100 µM with LOX IMVI melanoma, over 100 µM in the assay on EKVX NSCLC and 91.5 µM in the assay on MALME-3M melanoma.

Take `CCC1(C)C=Cc2c(cc(OC)c3c(=O)c4ccccc4n(C)c23)O1` (centres undefined): the TGI in the assay on M14 melanoma, in the assay with SK-MEL-28 melanoma, in the assay with SF-295 CNS, in the assay on HCT-15 colon, in the assay with SK-MEL-2 melanoma and in the assay with ACHN renal was over 10 µM each time. In addition, the TGI in the assay with LOX IMVI melanoma, in the assay on EKVX NSCLC and with MALME-3M melanoma was over 10 µM each time.

For the compound `COc1c(CC=C(C)C)c(O)c(C(CC(C)C)c2c(O)c(C(C)=O)c(O)c3c2OC(C(C)(C)O)C3)c(O)c1C(C)=O` (centres undefined), the TGI in the assay with SR leukemia is 10.4 µM; in the assay on M14 melanoma it was over 12.5 µM; in the assay on SK-MEL-28 melanoma, over 12.5 µM; in the assay on HCT-15 colon, over 12.5 µM; in the assay with ACHN renal, over 12.5 µM; in the assay with LOX IMVI melanoma it was over 12.5 µM. The TGI in the assay with EKVX NSCLC is 11.6 µM; in the assay with MALME-3M melanoma it was over 12.5 µM.

`COc1c2c(c(OC)c3c1c(=O)c1ccccc1n3C)OCO2`: the TGI in the assay on SR leukemia was over 29.7 µM; with M14 melanoma, over 100 µM; in the assay on SK-MEL-28 melanoma it was over 100 µM; in the assay on SF-295 CNS it was over 100 µM; in the assay on HCT-15 colon, over 100 µM; in the assay with SK-MEL-2 melanoma it was over 100 µM. Moreover, the TGI in the assay with ACHN renal, in the assay with LOX IMVI melanoma and in the assay with EKVX NSCLC was over 100 µM in each case.
